Literature values as cited in patent US10369185B2, “Methods and compositions for enhancement of ability to concentrate” (KYOWA HAKKO BIO CO., LTD., priority 2014, dated 2019).

Conditions: alanylglutamine compared to glutamine; cited from earlier work

In the case of `NC(=O)CC[C@H](N)C(=O)O` [glutamine, reference compound], the “solubility in aqueous solutions” value is given as “low-solubility”.
